Source: US20150274639A1, “METHODS OF USE FOR COMPOSITIONS COMPRISING A BIOCIDAL POLYAMINE” (Curza Global, LLC, priority 2013, published 2015)
≈ marks a conversion by molar mass, not a printed value. Where “and” joins values, the source holds several entries; their conditions need not be identical. Identical values can stand only once.

Assays:
A. baumannii biofilm [1] = experiment: MBEC, MBEC Inoculation Tray by Innovotech (to 10^2 CFU/peg in 24 hours); assay type: cell-based, Acinetobacter baumannii; settings: Table 4
Description: (§1) To determine the MBEC of each polyamine compound, the MBEC Inoculation Tray by Innovotech, formerly known as the Calgary biofilm device, was used. Within this device, biofilms grow on the surface of polystyrene pegs, 96 of which are attached to a lid. These pegs are inserted into a flat bottom 96-well plate. In this instance, the MBEC of a molecule was defined as the concentration of compound (in μg/mL) required to reduce 10^5 or 10^6 CFU/peg (biofilm levels varied by isolate) to 10^2 CFU/peg in a 24-hour period.
(§2) Following the manufacturer's guidelines, biofilms were grown on the surface of each peg by first making a 0.5 McFarland of each isolate. The 0.5 McFarland was diluted 1:100 in CAMHB. Into each well of a flat bottom 96-well plate, 150 μL of broth were pipetted. The plate was shaken at 100 rpm for 24 hours (P. aeruginosa and A. baumannii) or 48 hours (MRSA). The pegs were then placed into a separate flat bottom 96-well plate for 10 seconds with 200 μL of phosphate buffered saline (PBS) in each well to remove nonadherent cells. The lid was then placed into a 96-well plate that contained varying concentrations of antimicrobial with 200 μL per well. The plate was incubated for 24 hours at 37° C. after which time 100 μL of broth were plated on TSA. TSA plates were incubated 24 hours at 37° C. and the number of CFU counted to calculate the CFU/peg. In this instance, the MBEC was defined as the concentration of antimicrobial required to reduce 10^5 or 10^6 CFU/peg to 10^2 CFU/peg in a 24 hour period.
To determine the MBEC, the MBEC Inoculation Tray by Innovotech, formerly known as the Calgary biofilm device, is used. Within this device, biofilms grow on the surface of polystyrene pegs, 96 of which are attached to a lid. These pegs are inserted into a flat bottom 96-well plate. In this instance, the MBEC of a molecule is defined as the concentration of compound required to reduce approximately 10^6 CFU/peg to approximately 10^2 CFU/peg in a 24-hour period.
Following the manufacturer's guidelines, biofilms are grown on the surface of each peg by first making a 0.5 McFarland of A. baumannii. The 0.5 McFarland is diluted 1:100 in CAMHB broth. Into each well of a flat bottom 96-well plate, 150 μL of broth is pipetted. The plate is shaken at 100 rpm for 24 hours. The pegs are placed into a separate flat bottom 96-well plate for 10 seconds with 200 μL of phosphate buffered saline (PBS) in each well to remove nonadherent cells. The lid is placed into a 96-well plate that contains varying concentrations of antimicrobial with 200 μL of broth per well. The plate is incubated for 24 hours at 37° C. after which time 100 μL of broth is plated on TSA. TSA plates is incubated 24 hours at 37° C. and the number of CFU counted to calculate the CFU/peg.
MBEC data were collected using the MBEC Inoculation Tray by Innovotech. The MBEC was defined in these preliminary results as the concentration of antimicrobial required to reduce 10^5 or 10^6 CFU/peg to 10^2 CFU/peg in a 24-hour period.

P. aeruginosa biofilm [2] = experiment: as above; assay type: cell-based; settings: Pseudomonas aeruginosa; Table 3A titled MICs; group head missing, values match MBEC; read-out: MIC, P. aeruginosa (second P. aeruginosa)
Description: as §1
as §2, with “In this instance, the MBEC was defined as the concentration of antimicrobial required to reduce 10^5 or 10^6 CFU/peg to 10^2 CFU/peg in a 24 hour period.” left out

MRSA biofilm = experiment: EBEC, high number biofilms on PEEK membranes (10^9 to 10^2 CFU/PEEK membrane in 24 hours); assay type: cell-based, methicillin-resistant Staphylococcus aureus; settings: Staphylococcus aureus, Table 3B titled MICs, group head missing, values match EBEC
A. baumannii biofilm [3] = experiment: MBEC, MBEC Inoculation Tray by Innovotech (to 10^2 CFU/peg in 24 hours); assay type: cell-based, Acinetobacter baumannii; settings: Table 3B titled MICs, group head missing, values match MBEC; for MIC: Acinetobacter baumannii
MRSA = experiment: MIC against MRSA as defined by CLSI (FIG. 25 series); assay type: cell-based, methicillin-resistant Staphylococcus aureus; settings: Staphylococcus aureus
Protocol: To determine the MIC of the polyamine chains alone and the synthesized compounds against MRSA and P. aeruginosa ATCC 27853, a modified protocol from the Clinical and Laboratory Standards Institute (CLSI) guideline M26-A was used. […] All data was collected using cation adjusted MHB for standardization.
As mentioned, MRSA and P. aeruginosa ATCC 27853 were grown on Columbia blood agar plates prior to experimentation. From the blood agar plates, a 0.5 McFarland standard was made of each isolate. This equated to approximately 5×10^7 cells/mL for the MRSA isolate and approximately 3×10^7 cells/mL for the P. aeruginosa ATCC 27853 isolate. Of the 0.5 McFarland stock solution, 50 μL were added to MHB. […] All tests were performed such that a final volume of 5 mL of MHB were obtained. This provided a final bacterial concentration of approximately 5×10^5 cells/mL.
Each sample was incubated in glass test tubes at 37° C. for 24 hours, then plated in duplicate on tryptic soy agar (TSA) using a 10-fold dilution series. TSA plates were further incubated 24 hours at 37° C. The number of colony forming units (CFU) that grew were counted in order to calculate the number of bacteria that were present per mL in the original MHB solution.

P. aeruginosa biofilm [4] = experiment: EBEC, high number biofilms on PEEK membranes (10^9 to 10^2 CFU/PEEK membrane in 24 hours); assay type: cell-based; settings: Pseudomonas aeruginosa; Table 3B titled MICs; group head missing, values match EBEC
Protocol: In addition to determining the MIC and the MBEC of polyamine compounds against planktonic bacteria and low number biofilms, our group wanted to determine the efficacy of polyamine compounds against high number biofilms. To do so, biofilms were grown on the surface of polyetheretherketone (PEEK) membranes using a membrane biofilm reactor. This reactor is similar to the CDC biofilm reactor, but rather than growing biofilms on coupon surfaces, the reactor was modified to hold PEEK membranes. In short, to grow biofilms within this system, 500 mL of brain heart infusion (BHI) broth were inoculated with 1 mL of a 0.5 McFarland. The reactor was placed on a hot plate set at 34° C. and the bacteria were grown under batch conditions for 24 hours. Following this protocol, biofilms typically grow to 10^9 CFU/PEEK membrane. […] A solution of 10% BHI was then flowed through the reactor at a rate of 6.94 mL/min for an additional 24 hours. PEEK membranes were then removed and placed into 2 mL of CAMHB that contained a desired concentration of polyamine compound or antibiotic. The EBEC was defined as the concentration of antimicrobial required to reduce a biofilm from approximately 10^9 CFU/PEEK membrane to approximately 10^2 CFU/PEEK membrane in a 24-hour period.

Row | Compound | MBEC, A. baumannii (A. baumannii biofilm [1]) | MIC (P. aeruginosa biofilm [2]) [µg/mL] | MIC (MRSA biofilm) [µg/mL] | MIC (A. baumannii biofilm [3]) [µg/mL] | MIC (MRSA) [µg/mL] | MIC (P. aeruginosa biofilm [4]) [µg/mL] | MIC, A. baumannii (A. baumannii biofilm [3]) [µg/mL]
1 | NCCCNCCCNCc1cc(CNCCCNCCCN)cc(CNCCCNCCCN)c1 [CZ-52] | > 500 μg/mL and 995 μM | 400 (≈ 788 µM) | 250 (≈ 492 µM) | 300 (≈ 591 µM) | 3 (≈ 5.91 µM) | > 5000 | 
2 | Polymyxin B sulfate [reference compound] | 50 μg/mL and 36 μM |  |  |  |  |  | 50
3 | NCCCNCCCNCc1cccc(CNCCCNCCCN)c1 [CZ-25] | 450 μg/mL and 1234 μM | > 500 | > 5000 | 450 (≈ 1230 µM) | 45 (≈ 123 µM) | > 5000 | 
4 | NCCCNCCCNCc1cc(CNCCCNCCCN)cc(-c2ccccc2)c1 [CZ-58] | > 50 μg/mL and > 113 μM |  |  |  |  |  | 
